Measurements: paper PMC2206373, “Identification of an altered peptide ligand based on the endogenously presented, rheumatoid arthritis-associated, human cartilage glycoprotein-39(263–275) epitope: an MHC anchor variant peptide for immune modulation” (Arthritis Research & Therapy, 2007)
Where two headings read alike, the source gives them in different places. No end group written: not given here.

Columns and labels:
HLA-DR4(B1*0401) = HLA-DR4(B1*0401) (Homo sapiens, UniProt P01903+P01911, A100K/A169T/F76Y/I96L/K127E/L162R/M171V/N62H/P40V/Q125Y/R42H/S133A/S149N/S66Y/V115G/V209L/W38E); assay: HLA-DR4 competition peptide binding assay; conditions: competition with biotinylated HA307-319 (Y309F) 50 nM, purified HLA-DR4 30 nM, pH 5, 48 h, room temperature
Method: HLA-DR bound marker peptide was separated from free marker peptide and the amount of bound marker peptide was detected and quantified by enhanced chemoluminescense. Inhibition curves were generated and the IC50 was determined. The concentration of competitor peptide inducing 50% inhibition of marker peptide binding was determined, and expressed as the 50% inhibitory concentration (IC50 in μM).

B1*0405 = conditions: cited from earlier work
Text: (§1) Four TCR contact sites (Ala268, Ser269, Glu271 and Thr272) are important for polyclonal T cell activation. No information is available on important residues in the MHC α-chain, but for the β chain information on MHC restriction can be used (data not shown). The peptide does bind to HLA-DRB1*0402, B1*0405 and B1*0101 [7]. […] This leads to the view of the MHC-peptide complex in Figure 3b. Some of these MHC β-chain residues are th ...

B1*0101 = conditions: cited from earlier work
Text: as §1

HLA-DRB1*0402 = HLA-DRB1*0402 (Homo sapiens, UniProt P01903+P01911, A100E/A169T/F76Y/K127E/L162R/M171V/N62H/P40V/Q125Y/Q99D/R42H/S133A/S149N/S66Y/V209L/W38E); conditions: cited from earlier work
Text: as §1

[1] = system: popliteal lymph node cells from HC gp-39(263–275)-immunized huCD4, HLA-DR4 transgenic mice; assay: Antigen-specific proliferation of popliteal lymph node cells from WT peptide-immunized mice; assay type: cell-based, mouse; conditions: 96 h, tritiated thymidine, background 407 cpm, SI > 2 positive, SD not above 30%
Method: (§2) Mice, obtained from L Fugger (Oxford, UK), were immunized in the hind footpads with 2 × 50 μg of purified recombinant HC gp-39, with 2 × 100 μg of the WT peptide or with 2 × 100 μg of the APL (F265(Dip); compound 28; Figure 1) mixed in IFA. Seven days later, popliteal lymph node cell suspensions (1 to 2 × 10^5 cells/well) were stimulated in vitro with HC gp-39 (50, 10 or 2 μg/ml), HC gp-39(263–275) or APL (10, 2 and 0.4 μg/ml). At 96 h, 50 μl of culture medium was harvested for analysis of antigen-specific cytokine production using Luminex technology (mouse cytokine 18 Plex Panel, catalogue no. 171-F11181, Biorad, Bio-Rad Laboratories, Hercules, CA, USA). In addition, cultures were labelled with tritiated thymidine (for 18 h) and antigen-specific proliferation was determined. We state that all animal experimentation received ethics approval and animals were treated according to the recognized guidelines.

T cell hybridoma 20H5 = assay: T hybridoma 20H5 IL-2 response; assay type: cell-based, mouse; conditions: for Hybridoma response (SI) 20H5: IL-2 by ELISA after 48 h, peptide 10 μg/ml, DRB1*0401 BLCL as APC, SI > 2 positive
Method: (§3) The T cell hybridomas, provided by G Sonderstrup (Stanford, CA, USA), were generated as described. In brief, human CD4, HLA-DRA*101/HLA-DRB*0401 triple transgenic (HLA-DR4trg) mice (devoid of I-Aβ) were immunized in the footpad with 50 μg of purified HC gp-39 mixed in incomplete Freund's adjuvant (IFA). Draining lymph nodes were isolated and T-cell hybridomas were generated by polyethylene glycol fusion of primed and in vitro antigen-restimulated lymph node cells with the AKR BW5147 fusion partner. Following fusion, growth-positive hybridoma wells were screened for reactivity to HC gp-39 and a set of 55 peptides (16 amino acids in length) covering the entire HC gp-39 sequence. HLA-DR4(B1*0401)-restricted hybridomas responsive to both the HC gp-39 protein and the immunodominant epitope 263–275 of HC gp-39 (for example, 5G11, 8B12, 14G11 and 20H5) were cloned, subcloned, characterised and selected for further study.
(§4) HC gp-39-specific IL-2 production by T hybridomas was measured in wells of round-bottomed microtiter plates. Hybridoma cells (2 to 5 × 10^4) and irradiated APC (0.5 to 1 × 10^5; 12,000 to 16,000 RAD) from the B lymphoblastoid cell line (BLCL) carrying the DRB1*0401 specificity were incubated in 150 μl volumes. Antigen was added in 50 μl volumes to duplicate wells. After 48 h, 100 μl of the culture supernatant was assayed for IL-2 production using a sandwich ELISA with Pharmingen antibodies specific for mouse IL-2. The antigen sensitivity of the hybridomas to both peptide and protein was determined (Figure 2). […] In later assays, an excess of peptide or APL (10 μg/ml), inducing maximal responses in all hybridomas, was tested.

[2] = system: popliteal lymph node cells from HC gp-39(263–275)-immunized huCD4, HLA-DR4 transgenic mice; assay: Antigen-specific cytokine production of popliteal lymph node cells from WT peptide-immunized mice; assay type: cell-based, mouse; conditions: for IFNγ concentration / MIP1α concentration / RANTES concentration: 96 h supernatant, Luminex
Method: as §2

T cell hybridoma 8B12 = assay: T hybridoma 8B12 IL-2 response; assay type: cell-based, mouse; conditions: for Hybridoma response (SI) 8B12: IL-2 by ELISA after 48 h, peptide 10 μg/ml, SI > 2 positive
Method: as §3, §4

[3] = system: popliteal lymph node cells from F265(Dip)-immunized HLA-DR4trg mice; assay: Antigen-specific proliferation of popliteal lymph node cells from F265(Dip)-immunized mice; assay type: cell-based, mouse; conditions: Figure 4b
Method: as §2

[4] = system: popliteal lymph node cells from F265(Dip)-immunized HLA-DR4trg mice; assay: Antigen-specific cytokine production of popliteal lymph node cells from F265(Dip)-immunized mice; assay type: cell-based, mouse; conditions: Figure 4b
Method: as §2

[5] = Figure 2a dose response, IL-2 ELISA after 48 h
[6] = Figure 4a, WT peptide-immunized HLA-DR4trg mice

RSFTLASSETGVG [Compound 1, HC gp-39(263–275)]
IC50 (HLA-DR4(B1*0401); Figure 1, read-out: DRB1*0401 binding IC50): 10 nM | IC50 (HLA-DR4(B1*0401); Table 1, geometric mean of two experiments, read-out: HLA-DR binding IC50): 120 nM | Binding to HLA-DRB1*0405 in words (B1*0405): does bind | Binding to HLA-DRB1*0101 in words (B1*0101): does bind | Binding to HLA-DRB1*0402 in words (HLA-DRB1*0402): does bind | Prol (SI) ([1]; peptide 0.4 μg/ml): 3 SI | Prol (SI) ([1]; peptide 2 μg/ml): 6 SI | Prol (SI) ([1]; peptide 10 μg/ml): 8 SI | Peptide concentration for half maximal stimulation (IL-2), 20H5 (T cell hybridoma 20H5; [5]): 0.02 µg/mL | Hybridoma response (SI) 20H5 (T cell hybridoma 20H5; Table 1, background 35,749 counts, representative of at least three experiments): 26 SI | Hybridoma response (SI) 20H5 (T cell hybridoma 20H5; Table 2, background 290,666 counts, SD not above 15%): 5 SI | Ex vivo recall IFNγ production in words [2, 6]: significant levels | Ex vivo recall Mip1α production in words [2, 6]: significant levels | Ex vivo recall RANTES production in words [2, 6]: significant levels | IFNγ concentration ([2]; peptide 0.4 μg/ml): <5 pg/mL | MIP1α concentration ([2]; peptide 0.4 μg/ml): 25 pg/mL | RANTES concentration ([2]; peptide 0.4 μg/ml): 6 pg/mL | IFNγ concentration ([2]; peptide 2 μg/ml): 6 pg/mL | MIP1α concentration ([2]; peptide 2 μg/ml): 128 pg/mL | RANTES concentration ([2]; peptide 2 μg/ml): 13 pg/mL | IFNγ concentration ([2]; peptide 10 μg/ml): 16 pg/mL | MIP1α concentration ([2]; peptide 10 μg/ml): 252 pg/mL | RANTES concentration ([2]; peptide 10 μg/ml): 23 pg/mL | T hybridoma (SI) 8B12 (T cell hybridoma 8B12; Figure 1, IL-2 production, DRB1*0401 BLCL as APC, duplicate or triplicate, background 16,288 counts, ±30% of WT response = super/partial agonist): 19 SI | Peptide concentration for half maximal stimulation (IL-2), 8B12 (T cell hybridoma 8B12; [5]): 0.21 µg/mL | Hybridoma response (SI) 8B12 (T cell hybridoma 8B12; Table 1, DRB1*0401 BLCL as APC, background 7,470 counts, representative of at least three experiments): 9 SI | Hybridoma response (SI) 8B12 (T cell hybridoma 8B12; Table 2, DRB1*0401 BLCL as APC, background 8,773 counts, SD not above 15%): 39 SI | In vitro recall proliferative response in words [3]: somewhat less | In vitro recall IFNγ production in words [4]: failed to induce significant levels | In vitro recall Mip1α production in words [4]: failed to induce significant levels | In vitro recall RANTES production in words [4]: failed to induce significant levels
